Laboratory results as given in ChEMBL document CHEMBL3808296, “A combined in silico/in vitro approach unveils common molecular requirements for efficient BVDV RdRp binding of linear aromatic N-polycyclic systems” (Eur J Med Chem, 2016).

System: not listed separately
Assay: Cytotoxicity against mock-infected MDBK cells assessed as reduction in cell viability after 72 hrs by MTT assay
Format: cell-based, Bos taurus
Details: cattle
With `COc1ccc(-c2nc3cc4cccnc4cc3[nH]2)c(OC)c1` the CC50 at 72 h was > 100 µM. With `O=[N+]([O-])c1ccc(-c2nc3cc4cccnc4c(Cl)c3[nH]2)cc1` the CC50 at 72 h was > 100 µM. With `C[C@@]1(O)[C@H](O)[C@@H](CO)O[C@H]1n1cnc2c(=O)[nH]c(N)nc21` [2'-B-METHYL-GUANOSINE] the CC50 at 72 h was > 10 µM. With `O=[N+]([O-])c1ccc(-c2nc3cc4cccnc4c(Cl)c3n2CC2CCCCC2)cc1` the CC50 at 72 h was 33 µM. In the case of `Fc1ccc(-c2nc3cc4cccnc4cc3[nH]2)c(F)c1`, the CC50 at 72 h is reported as > 100 µM. For `CC(=O)c1ccc(-c2nc3cc4cccnc4c(Cl)c3[nH]2)cc1`, the CC50 at 72 h was > 100 µM. With `N#Cc1ccc(-c2nc3cc4cccnc4cc3[nH]2)cc1` the CC50 at 72 h was > 100 µM. `COc1ccc(-c2nc3cc4cccnc4c(Cl)c3n2CC2CCCCC2)cc1` gave a CC50 at 72 h of 20 µM.

System: not listed separately
Assay: Antiviral activity against BVDV NADL infected in MDBK cells assessed as inhibition of virus induced cytopathogenicity after 3 to 4 days by MTT assay
Format: functional, cell-based, Bovine viral diarrhea virus 1-NADL
Details: Bovine viral diarrhea virus isolates and strains
`COc1ccc(-c2nc3cc4cccnc4cc3[nH]2)c(OC)c1` showed an EC50 of 3.4 µM. `O=[N+]([O-])c1ccc(-c2nc3cc4cccnc4c(Cl)c3n2CC2CCCCC2)cc1` showed an EC50 of 5 µM. In the case of `Fc1ccc(-c2nc3cc4cccnc4cc3[nH]2)c(F)c1`, the EC50 is reported as 6 µM. Molecule `CC(=O)c1ccc(-c2nc3cc4cccnc4c(Cl)c3[nH]2)cc1` has an EC50 of 5.8 µM. `N#Cc1ccc(-c2nc3cc4cccnc4cc3[nH]2)cc1` gave an EC50 of 4 µM. Work on `COc1ccc(-c2nc3cc4cccnc4c(Cl)c3n2CC2CCCCC2)cc1` yielded an EC50 of 5 µM.

Molecular target: not listed separately
Assay: Inhibition of BVDV RNA-dependent RNA polymerase
Parameters: species or system Bovine viral diarrhea virus 1
Details: not given
`O=[N+]([O-])c1ccc(-c2nc3cc4cccnc4c(Cl)c3[nH]2)cc1` gave an IC50 of 0.06 µM.

System: not listed separately
Assay: Selectivity index, ratio of CC50 for MDBK cells to EC50 for […] NADL infected in MDBK cells
Details: not given
In the case of `COc1ccc(-c2nc3cc4cccnc4cc3[nH]2)c(OC)c1`, the “Ratio CC50/EC50” value is reported as >29.4. In the case of `C[C@@]1(O)[C@H](O)[C@@H](CO)O[C@H]1n1cnc2c(=O)[nH]c(N)nc21` [2'-B-METHYL-GUANOSINE], the “Ratio CC50/EC50” value is reported as >9.1. For `O=[N+]([O-])c1ccc(-c2nc3cc4cccnc4c(Cl)c3n2CC2CCCCC2)cc1`, the “Ratio CC50/EC50” value was >6.6. With `Fc1ccc(-c2nc3cc4cccnc4cc3[nH]2)c(F)c1` the “Ratio CC50/EC50” value was >16.7. In the case of `CC(=O)c1ccc(-c2nc3cc4cccnc4c(Cl)c3[nH]2)cc1`, the “Ratio CC50/EC50” value is reported as >17.2. In the case of `N#Cc1ccc(-c2nc3cc4cccnc4cc3[nH]2)cc1`, the “Ratio CC50/EC50” value is reported as >25. In the case of `COc1ccc(-c2nc3cc4cccnc4c(Cl)c3n2CC2CCCCC2)cc1`, the “Ratio CC50/EC50” value is reported as 4.

System: Bovine viral diarrhea virus 1
Assay: Antiviral activity against BVDV
Format: functional, organism-based
Details: Bovine viral diarrhea virus isolates and strains
In the case of `O=[N+]([O-])c1ccc(-c2nc3cc4cccnc4c(Cl)c3[nH]2)cc1`, the EC50 is reported as 1.2 µM.

System: Vaccinia virus
Assay: Antiviral activity against Vaccinia virus Elstree infected in Vero 76 cells after 3 days by crystal violet staining based plaque reduction assay
Format: functional, organism-based
Details: Orthopoxvirus vaccinia, Vero 76, 72 h
Work on `COc1ccc(-c2nc3cc4cccnc4cc3[nH]2)c(OC)c1` yielded an EC50 of 16 µM. In the case of `O=[N+]([O-])c1ccc(-c2nc3cc4cccnc4c(Cl)c3n2CC2CCCCC2)cc1`, the EC50 is reported as > 20 µM. With `Fc1ccc(-c2nc3cc4cccnc4cc3[nH]2)c(F)c1` the EC50 was > 100 µM. With `CC(=O)c1ccc(-c2nc3cc4cccnc4c(Cl)c3[nH]2)cc1` the EC50 was > 100 µM. With `N#Cc1ccc(-c2nc3cc4cccnc4cc3[nH]2)cc1` the EC50 was > 100 µM.

Molecular target: not listed separately
Assay: Inhibition of HCV RNA-dependent RNA polymerase
Parameters: species or system Hepacivirus hominis
Details: not given
`O=[N+]([O-])c1ccc(-c2nc3cc4cccnc4c(Cl)c3[nH]2)cc1` gave an IC50 of 8 µM.

System: Poliovirus 1
Assay: Antiviral activity against Human poliovirus 1 strain Sabin infected in Vero 76 cells after 2 days by crystal violet staining based plaque reduction assay
Format: functional, organism-based
Details: Enterovirus C, Vero 76, 48 h
Molecule `COc1ccc(-c2nc3cc4cccnc4cc3[nH]2)c(OC)c1` has an EC50 of 16 µM. With `O=[N+]([O-])c1ccc(-c2nc3cc4cccnc4c(Cl)c3n2CC2CCCCC2)cc1` the EC50 was > 20 µM. In the case of `Fc1ccc(-c2nc3cc4cccnc4cc3[nH]2)c(F)c1`, the EC50 is reported as > 100 µM. With `CC(=O)c1ccc(-c2nc3cc4cccnc4c(Cl)c3[nH]2)cc1` the EC50 was > 100 µM. For `N#Cc1ccc(-c2nc3cc4cccnc4cc3[nH]2)cc1`, the EC50 was > 30 µM.

System: not listed separately
Assay: Cytotoxicity against mock-infected african green monkey Vero 76 cells assessed as reduction in cell viability after 48 to 96 hrs by MTT assay
Format: cell-based
Details: chlorocebus sabaeus, mock-infected Vero 76 cells
Molecule `COc1ccc(-c2nc3cc4cccnc4cc3[nH]2)c(OC)c1` has a CC50 of 90 µM. With `O=[N+]([O-])c1ccc(-c2nc3cc4cccnc4c(Cl)c3n2CC2CCCCC2)cc1` the CC50 was 20 µM. For `Fc1ccc(-c2nc3cc4cccnc4cc3[nH]2)c(F)c1`, the CC50 was > 100 µM. For `CC(=O)c1ccc(-c2nc3cc4cccnc4c(Cl)c3[nH]2)cc1`, the CC50 was > 100 µM. `N#Cc1ccc(-c2nc3cc4cccnc4cc3[nH]2)cc1` showed a CC50 of 30 µM.

System: Yellow fever virus
Assay: Antiviral activity against Yellow fever virus 17D infected in BHK21 cells assessed as inhibition of virus induced cytopathogenicity after 3 to 4 days by MTT assay
Format: functional, cell-based
Details: BHK-21
For `COc1ccc(-c2nc3cc4cccnc4cc3[nH]2)c(OC)c1`, the EC50 was > 45 µM. For `O=[N+]([O-])c1ccc(-c2nc3cc4cccnc4c(Cl)c3n2CC2CCCCC2)cc1`, the EC50 was > 13 µM. With `Fc1ccc(-c2nc3cc4cccnc4cc3[nH]2)c(F)c1` the EC50 was > 100 µM. With `CC(=O)c1ccc(-c2nc3cc4cccnc4c(Cl)c3[nH]2)cc1` the EC50 was > 100 µM. With `N#Cc1ccc(-c2nc3cc4cccnc4cc3[nH]2)cc1` the EC50 was > 21 µM.

System: Mammalian orthoreovirus 1
Assay: Antiviral activity against Reovirus type-1 3651 infected in BHK21 cells assessed as inhibition of virus induced cytopathogenicity after 3 to 4 days by MTT assay
Format: functional, cell-based
Details: Mammalian orthoreovirus 1, 3651, BHK-21
`COc1ccc(-c2nc3cc4cccnc4cc3[nH]2)c(OC)c1` showed an EC50 of 38 µM. With `O=[N+]([O-])c1ccc(-c2nc3cc4cccnc4c(Cl)c3n2CC2CCCCC2)cc1` the EC50 was ≥ 16 µM. In the case of `Fc1ccc(-c2nc3cc4cccnc4cc3[nH]2)c(F)c1`, the EC50 is reported as 10 µM. For `CC(=O)c1ccc(-c2nc3cc4cccnc4c(Cl)c3[nH]2)cc1`, the EC50 was 60 µM. Molecule `N#Cc1ccc(-c2nc3cc4cccnc4cc3[nH]2)cc1` has an EC50 of 7 µM.

System: Respiratory syncytial virus
Assay: Antiviral activity against Respiratory syncytial virus A2 infected in Vero 76 cells after 5 days by crystal violet staining based plaque reduction assay
Format: functional, organism-based
Details: human respiratory syncytial virus, A2, Vero 76, 120 h
In the case of `COc1ccc(-c2nc3cc4cccnc4cc3[nH]2)c(OC)c1`, the EC50 is reported as > 45 µM. In the case of `O=[N+]([O-])c1ccc(-c2nc3cc4cccnc4c(Cl)c3n2CC2CCCCC2)cc1`, the EC50 is reported as > 20 µM. For `Fc1ccc(-c2nc3cc4cccnc4cc3[nH]2)c(F)c1`, the EC50 was > 58 µM. With `CC(=O)c1ccc(-c2nc3cc4cccnc4c(Cl)c3[nH]2)cc1` the EC50 was > 100 µM. For `N#Cc1ccc(-c2nc3cc4cccnc4cc3[nH]2)cc1`, the EC50 was > 16 µM.

System: Coxsackievirus B2
Assay: Antiviral activity against CVB-2 infected in Vero 76 cells after 3 days by crystal violet staining based plaque reduction assay
Format: functional, organism-based
Details: Enterovirus B, Vero 76, 72 h
`COc1ccc(-c2nc3cc4cccnc4cc3[nH]2)c(OC)c1` showed an EC50 of 12 µM. In the case of `O=[N+]([O-])c1ccc(-c2nc3cc4cccnc4c(Cl)c3n2CC2CCCCC2)cc1`, the EC50 is reported as > 20 µM. `Fc1ccc(-c2nc3cc4cccnc4cc3[nH]2)c(F)c1` gave an EC50 of 35 µM. In the case of `CC(=O)c1ccc(-c2nc3cc4cccnc4c(Cl)c3[nH]2)cc1`, the EC50 is reported as > 100 µM. For `N#Cc1ccc(-c2nc3cc4cccnc4cc3[nH]2)cc1`, the EC50 was > 30 µM.

System: not listed separately
Assay: Cytotoxicity against mock-infected BHK21 cells assessed as reduction in cell viability after 72 hrs by MTT assay
Format: cell-based, Mesocricetus auratus, BHK-21
Details: hamster
`COc1ccc(-c2nc3cc4cccnc4cc3[nH]2)c(OC)c1` gave a CC50 at 72 h of 45 µM. In the case of `C[C@@]1(O)[C@H](O)[C@@H](CO)O[C@H]1n1cnc2c(=O)[nH]c(N)nc21` [2'-B-METHYL-GUANOSINE], the CC50 at 72 h is reported as > 10 µM. For `O=[N+]([O-])c1ccc(-c2nc3cc4cccnc4c(Cl)c3n2CC2CCCCC2)cc1`, the CC50 at 72 h was 16 µM. With `Fc1ccc(-c2nc3cc4cccnc4cc3[nH]2)c(F)c1` the CC50 at 72 h was > 100 µM. For `CC(=O)c1ccc(-c2nc3cc4cccnc4c(Cl)c3[nH]2)cc1`, the CC50 at 72 h was > 100 µM. Molecule `N#Cc1ccc(-c2nc3cc4cccnc4cc3[nH]2)cc1` has a CC50 at 72 h of 21 µM.

System: Vesicular stomatitis virus
Assay: Antiviral activity against Vesicular stomatitis virus Indiana infected in Vero 76 cells after 2 days by crystal violet staining based plaque reduction assay
Format: functional, organism-based
Details: Vero 76, 48 h
In the case of `COc1ccc(-c2nc3cc4cccnc4cc3[nH]2)c(OC)c1`, the EC50 is reported as > 90 µM. In the case of `O=[N+]([O-])c1ccc(-c2nc3cc4cccnc4c(Cl)c3n2CC2CCCCC2)cc1`, the EC50 is reported as > 20 µM. In the case of `Fc1ccc(-c2nc3cc4cccnc4cc3[nH]2)c(F)c1`, the EC50 is reported as > 100 µM. For `CC(=O)c1ccc(-c2nc3cc4cccnc4c(Cl)c3[nH]2)cc1`, the EC50 was > 100 µM. For `N#Cc1ccc(-c2nc3cc4cccnc4cc3[nH]2)cc1`, the EC50 was > 100 µM.
